In PubChem BioAssay AID2060508 (Molecular Pharmacology Branch, DTP, NCI, 2025):

test system: 454973-116-R2-J3-PDC spheroids, viability, % test/control; assay: Anticancer human tumor 454973-116-R2-J3-PDC patient-derived pancreatic carcinoma cell line growth inhibition [GQUAD]; settings: second compound 3.16 µM; first compound 0.1 µM; stronger effect = lower value; spheroids with HUVEC and MSC
Procedure, shortened: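 Multi-cell-type spheroids of tumor cells with HUVEC and mesenchymal stem cells, treated with drug combinations. Concentrations descend in half-log steps from near clinical Cmax, or from 10 microM where Cmax is unknown; viability read-out.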
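Note: spheroids exposed to compounds for seven days; 100% = DMSO vehicle control viability.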

Row | Structure (SMILES) | viability, T/C [%]
1 | CC(C)n1c(=O)n(C)c2cnc3cc(F)c(-c4ccc(OCCCN5CCCCC5)nc4)cc3c21 + Cc1[nH]c2ccc(F)cc2c1-c1nc2c3cccnc3c3ncccc3c2[nH]1 | 101
2 | CC1COCCN1c1cc(-c2ccnn2C)c2ccnc(-c3ccn[nH]3)c2n1 (configuration not stated) + Cc1[nH]c2ccc(F)cc2c1-c1nc2c3cccnc3c3ncccc3c2[nH]1 | 52.9
3 | CC1COCCN1c1cc(C2(S(C)(=N)=O)CC2)nc(-c2ccnc3[nH]ccc23)n1 (configuration not stated) + Cc1[nH]c2ccc(F)cc2c1-c1nc2c3cccnc3c3ncccc3c2[nH]1 | 105
4 | COc1ccc([C@@H](O)c2cc(-c3ncnc4cc(N5CCOCC5)ccc34)c(F)cc2Cl)nn1 + Cc1[nH]c2ccc(F)cc2c1-c1nc2c3cccnc3c3ncccc3c2[nH]1 | 94.1

same assay, conditions: second compound 3.16 µM; first compound 0.316 µM; stronger effect = lower value; spheroids with HUVEC and MSC

Row | Structure (SMILES) | viability, T/C [%]
5 | CC(C)(O)C1CCC(Nc2ccc3ncc(-c4cccc(C(F)(F)F)c4)n3n2)CC1 (configuration not stated) + CN(C)c1ccc(Nc2c3ccc(NC(=O)CCN4CCCC4)cc3nc3cc(NC(=O)CCN4CCCC4)ccc23)cc1 | 80.2
6 | COc1ncnc(C2CC2)c1-c1ncc2cnn(Cc3ccc(-c4nc(C(F)(F)F)cn4C(C)C)cc3)c2n1 + CN(C)c1ccc(Nc2c3ccc(NC(=O)CCN4CCCC4)cc3nc3cc(NC(=O)CCN4CCCC4)ccc23)cc1 | 105
7 | O=C(NO)c1cnc(N2CCN(S(=O)(=O)c3ccc4ccccc4c3)CC2)nc1 + CN(C)c1ccc(Nc2c3ccc(NC(=O)CCN4CCCC4)cc3nc3cc(NC(=O)CCN4CCCC4)ccc23)cc1 | 29.4
8 | CC(C)n1c(=O)n(C)c2cnc3cc(F)c(-c4ccc(OCCCN5CCCCC5)nc4)cc3c21 + Cc1[nH]c2ccc(F)cc2c1-c1nc2c3cccnc3c3ncccc3c2[nH]1 | 96.8
9 | CC1COCCN1c1cc(-c2ccnn2C)c2ccnc(-c3ccn[nH]3)c2n1 (configuration not stated) + Cc1[nH]c2ccc(F)cc2c1-c1nc2c3cccnc3c3ncccc3c2[nH]1 | 30.2
10 | CC1COCCN1c1cc(C2(S(C)(=N)=O)CC2)nc(-c2ccnc3[nH]ccc23)n1 (configuration not stated) + Cc1[nH]c2ccc(F)cc2c1-c1nc2c3cccnc3c3ncccc3c2[nH]1 | 95.7
11 | COc1ccc([C@@H](O)c2cc(-c3ncnc4cc(N5CCOCC5)ccc34)c(F)cc2Cl)nn1 + Cc1[nH]c2ccc(F)cc2c1-c1nc2c3cccnc3c3ncccc3c2[nH]1 | 92.3

same assay, conditions: second compound 3.16 µM; first compound 1 µM; stronger effect = lower value; spheroids with HUVEC and MSC

Row | Structure (SMILES) | viability, T/C [%]
12 | CC(C)(O)C1CCC(Nc2ccc3ncc(-c4cccc(C(F)(F)F)c4)n3n2)CC1 (configuration not stated) + CN(C)c1ccc(Nc2c3ccc(NC(=O)CCN4CCCC4)cc3nc3cc(NC(=O)CCN4CCCC4)ccc23)cc1 | 39.4
13 | COc1ncnc(C2CC2)c1-c1ncc2cnn(Cc3ccc(-c4nc(C(F)(F)F)cn4C(C)C)cc3)c2n1 + CN(C)c1ccc(Nc2c3ccc(NC(=O)CCN4CCCC4)cc3nc3cc(NC(=O)CCN4CCCC4)ccc23)cc1 | 87
14 | O=C(NO)c1cnc(N2CCN(S(=O)(=O)c3ccc4ccccc4c3)CC2)nc1 + CN(C)c1ccc(Nc2c3ccc(NC(=O)CCN4CCCC4)cc3nc3cc(NC(=O)CCN4CCCC4)ccc23)cc1 | 2.84
15 | CC(C)n1c(=O)n(C)c2cnc3cc(F)c(-c4ccc(OCCCN5CCCCC5)nc4)cc3c21 + Cc1[nH]c2ccc(F)cc2c1-c1nc2c3cccnc3c3ncccc3c2[nH]1 | 97.5
16 | CC1COCCN1c1cc(-c2ccnn2C)c2ccnc(-c3ccn[nH]3)c2n1 (configuration not stated) + Cc1[nH]c2ccc(F)cc2c1-c1nc2c3cccnc3c3ncccc3c2[nH]1 | 20.8
17 | CC1COCCN1c1cc(C2(S(C)(=N)=O)CC2)nc(-c2ccnc3[nH]ccc23)n1 (configuration not stated) + Cc1[nH]c2ccc(F)cc2c1-c1nc2c3cccnc3c3ncccc3c2[nH]1 | 87
18 | COc1ccc([C@@H](O)c2cc(-c3ncnc4cc(N5CCOCC5)ccc34)c(F)cc2Cl)nn1 + Cc1[nH]c2ccc(F)cc2c1-c1nc2c3cccnc3c3ncccc3c2[nH]1 | 91.2

same assay, conditions: second compound 3.16 µM; first compound 3.16 µM; stronger effect = lower value; spheroids with HUVEC and MSC

Row | Structure (SMILES) | viability, T/C [%]
19 | CC(C)(O)C1CCC(Nc2ccc3ncc(-c4cccc(C(F)(F)F)c4)n3n2)CC1 (configuration not stated) + CN(C)c1ccc(Nc2c3ccc(NC(=O)CCN4CCCC4)cc3nc3cc(NC(=O)CCN4CCCC4)ccc23)cc1 | 22.6
20 | COc1ncnc(C2CC2)c1-c1ncc2cnn(Cc3ccc(-c4nc(C(F)(F)F)cn4C(C)C)cc3)c2n1 + CN(C)c1ccc(Nc2c3ccc(NC(=O)CCN4CCCC4)cc3nc3cc(NC(=O)CCN4CCCC4)ccc23)cc1 | 93.5
21 | O=C(NO)c1cnc(N2CCN(S(=O)(=O)c3ccc4ccccc4c3)CC2)nc1 + CN(C)c1ccc(Nc2c3ccc(NC(=O)CCN4CCCC4)cc3nc3cc(NC(=O)CCN4CCCC4)ccc23)cc1 | 0.54
22 | CC(C)n1c(=O)n(C)c2cnc3cc(F)c(-c4ccc(OCCCN5CCCCC5)nc4)cc3c21 + Cc1[nH]c2ccc(F)cc2c1-c1nc2c3cccnc3c3ncccc3c2[nH]1 | 96
23 | CC1COCCN1c1cc(-c2ccnn2C)c2ccnc(-c3ccn[nH]3)c2n1 (configuration not stated) + Cc1[nH]c2ccc(F)cc2c1-c1nc2c3cccnc3c3ncccc3c2[nH]1 | 23.5
24 | CC1COCCN1c1cc(C2(S(C)(=N)=O)CC2)nc(-c2ccnc3[nH]ccc23)n1 (configuration not stated) + Cc1[nH]c2ccc(F)cc2c1-c1nc2c3cccnc3c3ncccc3c2[nH]1 | 60.2
25 | COc1ccc([C@@H](O)c2cc(-c3ncnc4cc(N5CCOCC5)ccc34)c(F)cc2Cl)nn1 + Cc1[nH]c2ccc(F)cc2c1-c1nc2c3cccnc3c3ncccc3c2[nH]1 | 66

same assay, conditions: second compound 3.16 µM; first compound 10 µM; stronger effect = lower value; spheroids with HUVEC and MSC

Row | Structure (SMILES) | viability, T/C [%]
26 | CC(C)(O)C1CCC(Nc2ccc3ncc(-c4cccc(C(F)(F)F)c4)n3n2)CC1 (configuration not stated) + CN(C)c1ccc(Nc2c3ccc(NC(=O)CCN4CCCC4)cc3nc3cc(NC(=O)CCN4CCCC4)ccc23)cc1 | 31.6
27 | COc1ncnc(C2CC2)c1-c1ncc2cnn(Cc3ccc(-c4nc(C(F)(F)F)cn4C(C)C)cc3)c2n1 + CN(C)c1ccc(Nc2c3ccc(NC(=O)CCN4CCCC4)cc3nc3cc(NC(=O)CCN4CCCC4)ccc23)cc1 | 78.5
28 | O=C(NO)c1cnc(N2CCN(S(=O)(=O)c3ccc4ccccc4c3)CC2)nc1 + CN(C)c1ccc(Nc2c3ccc(NC(=O)CCN4CCCC4)cc3nc3cc(NC(=O)CCN4CCCC4)ccc23)cc1 | 0.91
29 | CC(C)n1c(=O)n(C)c2cnc3cc(F)c(-c4ccc(OCCCN5CCCCC5)nc4)cc3c21 + Cc1[nH]c2ccc(F)cc2c1-c1nc2c3cccnc3c3ncccc3c2[nH]1 | 66
30 | CC1COCCN1c1cc(-c2ccnn2C)c2ccnc(-c3ccn[nH]3)c2n1 (configuration not stated) + Cc1[nH]c2ccc(F)cc2c1-c1nc2c3cccnc3c3ncccc3c2[nH]1 | 24.9
31 | CC1COCCN1c1cc(C2(S(C)(=N)=O)CC2)nc(-c2ccnc3[nH]ccc23)n1 (configuration not stated) + Cc1[nH]c2ccc(F)cc2c1-c1nc2c3cccnc3c3ncccc3c2[nH]1 | 30.3
32 | COc1ccc([C@@H](O)c2cc(-c3ncnc4cc(N5CCOCC5)ccc34)c(F)cc2Cl)nn1 + Cc1[nH]c2ccc(F)cc2c1-c1nc2c3cccnc3c3ncccc3c2[nH]1 | 50.7

same assay, conditions: second compound 10 µM; first compound 0.0316 µM; stronger effect = lower value; spheroids with HUVEC and MSC

Row | Structure (SMILES) | viability, T/C [%]
33 | CC(C)(O)C1CCC(Nc2ccc3ncc(-c4cccc(C(F)(F)F)c4)n3n2)CC1 (configuration not stated) + CN(C)c1ccc(Nc2c3ccc(NC(=O)CCN4CCCC4)cc3nc3cc(NC(=O)CCN4CCCC4)ccc23)cc1 | 62.3
34 | COc1ncnc(C2CC2)c1-c1ncc2cnn(Cc3ccc(-c4nc(C(F)(F)F)cn4C(C)C)cc3)c2n1 + CN(C)c1ccc(Nc2c3ccc(NC(=O)CCN4CCCC4)cc3nc3cc(NC(=O)CCN4CCCC4)ccc23)cc1 | 71
35 | O=C(NO)c1cnc(N2CCN(S(=O)(=O)c3ccc4ccccc4c3)CC2)nc1 + CN(C)c1ccc(Nc2c3ccc(NC(=O)CCN4CCCC4)cc3nc3cc(NC(=O)CCN4CCCC4)ccc23)cc1 | 59.5
36 | CC(C)n1c(=O)n(C)c2cnc3cc(F)c(-c4ccc(OCCCN5CCCCC5)nc4)cc3c21 + Cc1[nH]c2ccc(F)cc2c1-c1nc2c3cccnc3c3ncccc3c2[nH]1 | 101
37 | CC1COCCN1c1cc(-c2ccnn2C)c2ccnc(-c3ccn[nH]3)c2n1 (configuration not stated) + Cc1[nH]c2ccc(F)cc2c1-c1nc2c3cccnc3c3ncccc3c2[nH]1 | 81.6
